Patent US20070265208A1, “Association of calpain inhibitors and reactive oxygen species trapping agents” (priority 2000, published 2007)

Key:
human calpain I = molecular target: T1, human calpain I (Homo sapiens, UniProt P07384); test: Effects on human calpain I (acellular, Suc-Leu-Tyr-AMC fluorescence); format: biochemical; conditions: enzyme purified from human erythrocytes; 1 h at 25°C; read-out: Inhibition human calpain I, acellular [IC50 (nM)]
T1 construct: enzyme purified from human erythrocytes; purchased Calbiochem 208713; host or cells: human erythrocytes (native tissue source)
T1 sequence (P07384 1-714): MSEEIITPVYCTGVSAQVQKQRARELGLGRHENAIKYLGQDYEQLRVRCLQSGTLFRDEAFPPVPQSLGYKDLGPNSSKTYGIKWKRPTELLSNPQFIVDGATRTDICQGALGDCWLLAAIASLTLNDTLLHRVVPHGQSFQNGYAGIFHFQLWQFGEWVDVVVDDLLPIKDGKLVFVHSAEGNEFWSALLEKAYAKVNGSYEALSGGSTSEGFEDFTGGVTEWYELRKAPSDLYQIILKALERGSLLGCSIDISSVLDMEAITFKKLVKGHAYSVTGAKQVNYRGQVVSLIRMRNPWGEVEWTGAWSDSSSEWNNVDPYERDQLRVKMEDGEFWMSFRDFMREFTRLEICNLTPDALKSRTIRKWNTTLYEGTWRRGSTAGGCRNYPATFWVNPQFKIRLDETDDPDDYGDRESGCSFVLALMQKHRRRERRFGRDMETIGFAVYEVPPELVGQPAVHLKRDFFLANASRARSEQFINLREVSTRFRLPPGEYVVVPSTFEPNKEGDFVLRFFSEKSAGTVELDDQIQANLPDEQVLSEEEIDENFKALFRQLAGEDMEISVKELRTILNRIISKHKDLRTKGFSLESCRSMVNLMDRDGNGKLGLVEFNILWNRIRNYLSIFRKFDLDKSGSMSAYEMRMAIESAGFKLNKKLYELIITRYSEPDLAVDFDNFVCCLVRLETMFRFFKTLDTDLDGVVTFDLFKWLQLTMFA
T1 sequence (P04632 1-268 partner): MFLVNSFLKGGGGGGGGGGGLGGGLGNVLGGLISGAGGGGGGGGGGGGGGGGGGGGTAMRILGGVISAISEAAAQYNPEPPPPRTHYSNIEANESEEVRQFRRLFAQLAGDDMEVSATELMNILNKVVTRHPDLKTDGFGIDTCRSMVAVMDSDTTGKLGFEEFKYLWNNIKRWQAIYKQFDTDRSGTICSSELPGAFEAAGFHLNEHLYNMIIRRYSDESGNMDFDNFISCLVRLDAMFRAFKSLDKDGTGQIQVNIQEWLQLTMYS
Method: The test consists of measuring the activity of the enzyme (enzyme purified from human erythrocytes) which is incubated in a buffer in the presence of a peptide substrate coupled with a fluorochrome (amino-methylcourmarin, AMC) and calcium. The enzyme activated by the calcium, proteolyses the substrate and releases the AMC fragment. The AMC released fluoresces at 460 nm under excitation at 380 nm. The activity of the enzyme is therefore proportional to the quantity of fluorescence i.e. of free AMC fragment. The fluorescence (380/460 nm) is measured using a multi-well fluorimeter (Victor 2, Wallac).
Assay is carried out in 96-well microplates with transparent bottoms and black walls in which 10 μl per well of substance to be tested in DMSO 10%, 45 μl of reaction mixture containing the human calpain I at 2.2 U/ml (Calbiochem, ref: 208713), the Suc Leu Tyr-AMC substrate (Bachem, ref: I-1355) at 1.1 mM in a buffer (Tris-HCl 110 mM; NaCl 110 mM; EDTA 2.2 mM; EGTA 2.2 mM; mercaptoethanol 1.1 mM) are distributed. The reaction is initiated by adding 45 μl of CaCl2 22mM. To determine the background noise, control wells without calcium are added to the plate (10 μL DMSO 10%+45 μL of buffer with the enzyme and the susbtrate +45 μL H2O). In order to determine the total activity of the enzyme control wells containing no product are added to the plate (10 μL DMSO 10%+45 μL of buffer with the enzyme and the substrate +45 μL of CaCl2 22 mM ). Each concentration of the products (0.1 nM to 10 μM) is tested in duplicate. The plates are shaken and incubation takes place for one hour at 25° C. in darkness. The fluorescence is read at 380/460 nm using the Victor.

[1] = test system: human neuroblastomas SHSY5Y; test: Protection from necrosis induced by maitotoxin, SHSY5Y (wst-1 viability); format: cell-based; conditions: for Protection from necrosis induced by MTX: SHSY5Y, n=2, 0.1 nM maitotoxin; for Protection from necrosis induced by MTX on SHSY5Y: n = 8, single product at 100 μM
Method: Human neuroblastomas SHSY5Y and rat glial cells C6 are seeded at 25 000 cells per well in 96-well plates in DMEM 10% FBS for 24 hours. The L6 rat myoblasts are seeded at 1000 cells per well in DMEM 10% FBS on 96-well microplates coated beforehand with gelatin 0.5% PBS. After culture for 3 days the medium is removed and replaced with a differentiation medium (DMEM+10 μg/ml of insulin+100 μg/ml of transferrin). 50 μl of product A plus 50 μl of solvent or 50 μl of product B are placed in the wells. After incubation for 1 hour at 37° C. under an atmosphere of 5% CO2, 10 μl of maitotoxin is added in order to obtain a final concentration of 0.1 nM to 1 nM (according to the cell type). After incubation for 3 hours at 37° C. under an atmosphere of 5% CO2, the cell viability is determined by adding 10 μl of tetrazolium salts (wst-1, Roche, ref: 1644807). The tetrazolium salts are cleaved into formazan molecules by mitochondrial dehydrogenases. The quantity of formazan formed is directly correlated to the number of metabolically active cells in the culture. Measurement of the absorbance of the formazan is carried out using a multiwell photometer at a wavelength of 420 nm against a reference wavelength of 620 nm.
The theoretical effect was obtained by multiplying the percentage of dead cells in the presence of product A by the percentage of dead cells in the presence of product B (Table 3). The percentage protection against cell death induced by MTX being the percentage of cells kept alive in the presence of the product or products.
In a first series of experiments, the concentration of product A in Example 1 is fixed (100 μM), product B is added at concentrations varying from zero to 100 μM (Table 4A). In a second series of experiments, product B of Example 1 is fixed at 100 μM, product A is added at concentrations varying from zero to 100 μM (Table 4B).

Q: How did the IC50 (human calpain I) turn out when `CC(C)C[C@@H](C=O)NC(=O)[C@H](CC(C)C)NC(=O)OCc1ccccc1` [EXAMPLE 1 B, benzyl (1S)-1-({[(1S)-1-formyl-3-methylbutyl]amino}carbonyl)-3-methylbutylcarbamate] was run?
A: The IC50 was 6 nM.

Q: And the “Protection from necrosis induced by MTX” value ([1]; single compound at 12.5 μM)?
A: Its value is 6.89 ± 1.51%.

Q: And the “Protection from necrosis induced by MTX” value ([1]; single compound at 25 μM)?
A: Its value is 6.94 ± 0.2%.

Q: What about the “Protection from necrosis induced by MTX” value ([1]; single compound at 50 μM) of the same compound?
A: Its value is 9.01 ± 0.83%.

Q: What about the “Protection from necrosis induced by MTX” value ([1]; single compound at 100 μM) of the same compound?
A: The value was 17.52 ± 2.69%.

Q: And the “Protection from necrosis induced by MTX on SHSY5Y” value [1]?
A: The value was 12.87 ± 3.72%.

Q: What about the “Protection from necrosis induced by MTX on SHSY5Y” value ([1]; listed as Z-Leu-Leu-H) of the same compound?
A: The value was “not active”.
